Reference: PubChem BioAssay (NCI)
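Cultured in 96-well plates, cells were exposed to test compound for 48 hours across five concentrations. GI50 marks 50% less growth. At the TGI there is no net growth.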

These compounds were tested on SK-MEL-28 melanoma (assay: DTP human tumour cell line panel, 48 h).
`CC[C@@]1(O)C(=O)OCc2c1cc1n(c2=O)Cc2c-1nc1cc3c(cc1c2CCl)OCO3` was tested, and the GI50 was 2.33 µM and the TGI was 18.9 µM. In the case of `O=C1O[C@@H](c2ccc3c(c2)OCO3)C2C(=O)O[C@@H](c3ccc4c(c3)OCO4)C12` (stereo partly drawn), the TGI is reported as over 100 µM. Work on `O=C1CCC(=O)N2CCCCN12` yielded a TGI of over 100 µM. For `CC(C)C(=O)NC(=S)Nc1ccc([N+](=O)[O-])cc1C#N`, the TGI was over 100 µM. Work on `C/C(CC(=O)Nc1cc(Cl)c(Cl)cc1Cl)=N\NC(N)=O` yielded a TGI of over 100 µM. Work on `N#Cc1cc([N+](=O)[O-])ccc1NC(=O)C(=O)Nc1n[nH]c(N)n1` yielded a TGI of over 100 µM. `O=C(/C=C/c1c(O)ccc2ccccc12)c1cccc(O)c1` showed a TGI of over 100 µM. Work on `CC1=NN(C(=O)Nc2ccccc2)C(=O)C2CCC(=O)N12` (stereo not drawn) yielded a TGI of over 100 µM. For `Oc1ccc(NCc2nc3ccccc3[nH]2)cc1`, the GI50 was 38.4 µM and the TGI was over 100 µM. `COC(=O)C1Cc2c(n(Cc3ccccc3)c3ccccc23)C(CCC(=O)O)N1C(C)C` (stereo not drawn) showed a TGI of over 100 µM. Work on `O=C(O)CNS(=O)(=O)c1ccc(NCc2ccccc2)cc1` yielded a TGI of over 100 µM. `O=C1c2cc(Cl)ccc2S(=O)(=O)c2c(NCCCNCCO)nc3ccccc3c21` showed a GI50 of 1.76 µM and a TGI of 3.39 µM. For `CC(C)(C)C1C=C(Sc2ccccc2)C(=O)O1` (stereo not drawn), the TGI was over 100 µM. `CCC[CH2][Sn]1([CH2]CCC)[O]Cc2nc(C)ccc2[O]1` showed a GI50 of 10.6 µM and a TGI of 22.4 µM. `O=c1/c(=C/c2ccco2)sc2nc3ccccc3n12` showed a GI50 of over 100 µM and a TGI of over 100 µM. `O=C1CCC2(c3ccc(F)cc3)Nc3cc(Cl)ccc3N12` (stereo not drawn) was tested, and the TGI was over 100 µM. For `O=c1[nH]ncc(Br)c1Br`, the GI50 was 1.74 µM and the TGI was 3.12 µM. `C/C(CC(=O)Nc1ccc(C)cc1C)=N/N=C(N)N` gave a TGI of over 100 µM. In the case of `COc1ccc(-c2cc(=O)c3c(OC)c(OC)c(OC)cc3o2)cc1`, the TGI is reported as over 100 µM.

What follows are compounds tested on SNB-75 CNS (assay: DTP human tumour cell line panel, 48 h).
With `COC(=O)c1c/c(=N\NC(=O)CC(=O)Nc2ccccc2OC)c2ccccc2o1` the TGI was over 100 µM. Compound `NC(CCC(=O)NC(CSSCCCCS(=O)O)C(=O)NCC(=O)O)C(=O)O` (stereo not drawn) has a TGI of over 100 µM. `C[C@@H]1OC(O)[C@@H](F)[C@H](O)[C@@H]1O` (stereo partly drawn) gave a GI50 of over 100 µM and a TGI of over 100 µM. Work on `COC12C=C(C)C(CC1)CC2C(=O)O` (stereo not drawn) yielded a TGI of over 100 µM. `OCC(O)CC[CH2][Sn]([Br])([c]1ccccc1)[c]1ccccc1` (stereo not drawn) gave a GI50 of over 100 µM and a TGI of over 100 µM. In the case of `NC(=O)c1ccc(I)c(N)c1`, the GI50 is reported as over 100 µM and the TGI is reported as over 100 µM. With `CCc1ccc(/C=C\c2cc(OC)c(OC)c(OC)c2)cc1` the GI50 was 0.0261 µM and the TGI was over 100 µM. Compound `O=c1c2cc([N+](=O)[O-])ccc2sc2ccsc12` has a TGI of over 100 µM. For `COc1ccc(C2=CC3CCC2C3)cc1` (stereo not drawn), the TGI was over 100 µM. `COc1ccc(/C=C/CN(C)CCc2ccccc2)cc1OC` gave a TGI of over 100 µM. Compound `O=C1CCCCN1CCCCC#Cc1ccccc1C#Cc1ccc([N+](=O)[O-])cc1` has a GI50 of 2.21 µM and a TGI of 28.9 µM. `[Cl-].[Dy+3].[O-]/N=C(\c1ccccc1)c1ccccn1.[O-]/N=C(\c1ccccc1)c1ccccn1.[O-]/N=C(\c1ccccc1)c1ccccn1` gave a GI50 of 3.54 µM and a TGI of 22.1 µM. In the case of `NC(=O)C(=O)N/N=C(\CC1(O)C(=O)Nc2ccccc21)c1ccc2ccccc2c1` (stereo not drawn), the TGI is reported as over 100 µM. `Cc1cc2c(cc1C)[n+](=O)c(C(=O)C/C(=N/NC(=O)CC#N)C(=O)Nc1ccccc1C(F)(F)F)c(C)n2[O-]` showed a TGI of over 100 µM. `COC(=O)/C(=N/NC(=O)C[N+](C)(C)C)C(C(=O)OC)C(=O)C(=O)Nc1ccc(F)cc1` (stereo not drawn) showed a TGI of over 100 µM. `O=C(c1ccccc1)c1nnc(C(=O)c2ccccc2)nn1` gave a TGI of over 344 µM. `Brc1cccc(C=NC23CC4CC(CC(C4)C2)C3)c1` showed a TGI of over 100 µM. Compound `Nc1nc(Cl)c2ncn(Cc3ccc(C45CC6CC(CC(C6)C4)C5)c(O)c3)c2n1` has a GI50 of 3.88 µM and a TGI of 28.9 µM. With `CCC[CH2][Sn]([CH2]CCC)([O]C(=O)c1cccnc1SC)[O]C(=O)c1cccnc1SC` the GI50 was 0.673 µM and the TGI was 2.02 µM. `CC[C@@]1(O)C(=O)OCc2c1cc1n(c2=O)Cc2c-1nc1cc3c(cc1c2CCl)OCO3` was tested, and the GI50 was under 0.01 µM and the TGI was 2.08 µM. `O=C1O[C@@H](c2ccc3c(c2)OCO3)C2C(=O)O[C@@H](c3ccc4c(c3)OCO4)C12` (stereo partly drawn) showed a TGI of over 100 µM. Compound `O=C1CCC(=O)N2CCCCN12` has a TGI of over 100 µM. For `CC(C)C(=O)NC(=S)Nc1ccc([N+](=O)[O-])cc1C#N`, the TGI was over 100 µM. `C/C(CC(=O)Nc1cc(Cl)c(Cl)cc1Cl)=N\NC(N)=O` was tested, and the TGI was over 100 µM. `N#Cc1cc([N+](=O)[O-])ccc1NC(=O)C(=O)Nc1n[nH]c(N)n1` gave a TGI of over 100 µM. Compound `O=C(/C=C/c1c(O)ccc2ccccc12)c1cccc(O)c1` has a TGI of over 100 µM. Work on `CC1=NN(C(=O)Nc2ccccc2)C(=O)C2CCC(=O)N12` (stereo not drawn) yielded a TGI of over 100 µM. With `Oc1ccc(NCc2nc3ccccc3[nH]2)cc1` the GI50 was 18 µM and the TGI was 62.5 µM. `COC(=O)C1Cc2c(n(Cc3ccccc3)c3ccccc23)C(CCC(=O)O)N1C(C)C` (stereo not drawn) showed a TGI of over 100 µM. `O=C(O)CNS(=O)(=O)c1ccc(NCc2ccccc2)cc1` showed a TGI of over 100 µM. Work on `O=C1c2cc(Cl)ccc2S(=O)(=O)c2c(NCCCNCCO)nc3ccccc3c21` yielded a GI50 of 2.15 µM and a TGI of 9.35 µM. With `CC(C)(C)C1C=C(Sc2ccccc2)C(=O)O1` (stereo not drawn) the TGI was 83.8 µM. Compound `CCC[CH2][Sn]1([CH2]CCC)[O]Cc2nc(C)ccc2[O]1` has a GI50 of 4.63 µM and a TGI of 18.8 µM. `O=c1/c(=C/c2ccco2)sc2nc3ccccc3n12` gave a GI50 of over 10 µM and a TGI of over 100 µM. In the case of `O=C1CCC2(c3ccc(F)cc3)Nc3cc(Cl)ccc3N12` (stereo not drawn), the TGI is reported as over 100 µM. Work on `O=c1[nH]ncc(Br)c1Br` yielded a GI50 of 3.35 µM and a TGI of 16 µM. Compound `C/C(CC(=O)Nc1ccc(C)cc1C)=N/N=C(N)N` has a TGI of over 100 µM. `COc1ccc(-c2cc(=O)c3c(OC)c(OC)c(OC)cc3o2)cc1` was tested, and the TGI was over 100 µM.

These compounds were tested on K-562 leukemia (assay: DTP human tumour cell line panel, 48 h).
`COC(=O)c1c/c(=N\NC(=O)CC(=O)Nc2ccccc2OC)c2ccccc2o1` showed a TGI of over 100 µM. `NC(CCC(=O)NC(CSSCCCCS(=O)O)C(=O)NCC(=O)O)C(=O)O` (stereo not drawn) was tested, and the TGI was over 100 µM. For `COC12C=C(C)C(CC1)CC2C(=O)O` (stereo not drawn), the TGI was over 100 µM. `OCC(O)CC[CH2][Sn]([Br])([c]1ccccc1)[c]1ccccc1` (stereo not drawn) showed a GI50 of over 100 µM and a TGI of over 100 µM. For `O=c1c2cc([N+](=O)[O-])ccc2sc2ccsc12`, the TGI was over 100 µM. Compound `COc1ccc(C2=CC3CCC2C3)cc1` (stereo not drawn) has a TGI of over 100 µM. Compound `COc1ccc(/C=C/CN(C)CCc2ccccc2)cc1OC` has a TGI of over 100 µM. Compound `O=C1CCCCN1CCCCC#Cc1ccccc1C#Cc1ccc([N+](=O)[O-])cc1` has a GI50 of 3.6 µM and a TGI of 22.3 µM. In the case of `[Cl-].[Dy+3].[O-]/N=C(\c1ccccc1)c1ccccn1.[O-]/N=C(\c1ccccc1)c1ccccn1.[O-]/N=C(\c1ccccc1)c1ccccn1`, the GI50 is reported as 35.9 µM and the TGI is reported as over 100 µM. `NC(=O)C(=O)N/N=C(\CC1(O)C(=O)Nc2ccccc21)c1ccc2ccccc2c1` (stereo not drawn) showed a TGI of 61.7 µM. `Cc1cc2c(cc1C)[n+](=O)c(C(=O)C/C(=N/NC(=O)CC#N)C(=O)Nc1ccccc1C(F)(F)F)c(C)n2[O-]` gave a TGI of over 100 µM. For `COC(=O)/C(=N/NC(=O)C[N+](C)(C)C)C(C(=O)OC)C(=O)C(=O)Nc1ccc(F)cc1` (stereo not drawn), the TGI was over 100 µM. `O=C(c1ccccc1)c1nnc(C(=O)c2ccccc2)nn1` showed a TGI of over 344 µM. In the case of `Brc1cccc(C=NC23CC4CC(CC(C4)C2)C3)c1`, the TGI is reported as over 100 µM. `CCC[CH2][Sn]([CH2]CCC)([O]C(=O)c1cccnc1SC)[O]C(=O)c1cccnc1SC` was tested, and the GI50 was 0.0482 µM and the TGI was 0.372 µM. In the case of `O=C1O[C@@H](c2ccc3c(c2)OCO3)C2C(=O)O[C@@H](c3ccc4c(c3)OCO4)C12` (stereo partly drawn), the TGI is reported as over 100 µM. Work on `O=C1CCC(=O)N2CCCCN12` yielded a TGI of over 100 µM. `CC(C)C(=O)NC(=S)Nc1ccc([N+](=O)[O-])cc1C#N` was tested, and the TGI was over 100 µM. Compound `C/C(CC(=O)Nc1cc(Cl)c(Cl)cc1Cl)=N\NC(N)=O` has a TGI of over 100 µM. `N#Cc1cc([N+](=O)[O-])ccc1NC(=O)C(=O)Nc1n[nH]c(N)n1` was tested, and the TGI was over 100 µM. With `O=C(/C=C/c1c(O)ccc2ccccc12)c1cccc(O)c1` the TGI was over 100 µM. Work on `CC1=NN(C(=O)Nc2ccccc2)C(=O)C2CCC(=O)N12` (stereo not drawn) yielded a TGI of over 100 µM. `COC(=O)C1Cc2c(n(Cc3ccccc3)c3ccccc23)C(CCC(=O)O)N1C(C)C` (stereo not drawn) showed a TGI of over 100 µM. Work on `O=C(O)CNS(=O)(=O)c1ccc(NCc2ccccc2)cc1` yielded a TGI of over 100 µM. With `CC(C)(C)C1C=C(Sc2ccccc2)C(=O)O1` (stereo not drawn) the TGI was over 100 µM. `CCC[CH2][Sn]1([CH2]CCC)[O]Cc2nc(C)ccc2[O]1` gave a GI50 of 3.17 µM and a TGI of 10.5 µM. `O=c1/c(=C/c2ccco2)sc2nc3ccccc3n12` gave a GI50 of over 100 µM and a TGI of over 100 µM. `O=C1CCC2(c3ccc(F)cc3)Nc3cc(Cl)ccc3N12` (stereo not drawn) showed a TGI of over 100 µM. `C/C(CC(=O)Nc1ccc(C)cc1C)=N/N=C(N)N` was tested, and the TGI was over 100 µM. Work on `COc1ccc(-c2cc(=O)c3c(OC)c(OC)c(OC)cc3o2)cc1` yielded a TGI of over 100 µM.
